# From patent publication US11110186B2, “Anionic chelate compounds” (GENERAL ELECTRIC COMPANY, priority 2017, dated 2021)
# Test: Measurement of r1 and r2 relaxivities (Bruker mq60 relaxometer)
# Assay type: physicochemical
# Settings: in water at 60 MHz and 40° C.
# Description: Manganese containing chelates were dissolved in water at concentrations ranging from […] Mn. T1 and T2 relaxation times were then measured at 60 MHz and 40° C. using a Bruker mq60 relaxometer. Linear fits (R^2>0.99 in all cases) of 1/T1 or 1/T2 as a function of Mn concentration gave r1 or r2 values respectively.
# The values in Table 1 are relaxivities in water. The r1 value represents the ability of the chelate to generate T1 (or positive) contrast in a MR scanner while the r2 value represents the ability of the chelate to generate T2 (or negative) contrast in a MR scanner.
row,Structure (SMILES),r1 relaxivity
1,CN1CCN2Cc3cccc(n3)CN(CC1)C(CCCCNC(=O)[C@H](O)[C@@H](O)C(=O)O)C(=O)[O][Mn][O]C(=O)C2CCCCNC(=O)[C@H](O)[C@@H](O)C(=O)O (stereo partly shown) [Mn Chelate 2],4.6 mM⁻¹ s⁻¹
2,"CN1CCN2CC(=O)[O][Mn][O]C(=O)CN(CC1)Cc1cccc(n1)C2 [Mn Platform, reference compound]",1.7 mM⁻¹ s⁻¹
3,CN1CCN2Cc3cccc(n3)CN(CC1)C(CCC(=O)NCCS(=O)(=O)O)C(=O)[O][Mn][O]C(=O)C2CCC(=O)NCCS(=O)(=O)O (stereo not shown) [Mn Chelate 1],3.4 mM⁻¹ s⁻¹

# Test: not given
# Settings: estimated in DMSO; arm —C(═O)—N—R2R3 of Formula I; cited from earlier work
row,Structure (SMILES),pKa (approx.)
1,CC(=O)NCCc1ccc(C(C#N)C#N)cc1,~4.2
2,CC(=O)NC/C=C1\SC(=O)NC1=O,~6.8
3,CC(=O)NCCS(=O)(=O)O,~1.6
4,CC(=O)NCCc1ccc(S(=O)(=O)C[N+](=O)[O-])cc1,~7.1
5,CC(=O)NCCc1cc([N+](=O)[O-])ccc1S,~5.5
6,CC(=O)NCCc1ccc(C(=O)C[N+](=O)[O-])cc1,~7.7
7,CC(=O)NCCc1cc([N+](=O)[O-])cc([N+](=O)[O-])c1O,~5.1
